# Measurements as given in US20260294770A1, “FORMULATIONS OF NARINGENIN” (DEBUT BIOTECHNOLOGY, INC., priority 2023, published 2026).
# Entries after “also recorded” stand apart in the source; their conditions may differ.
# Key:
# [1] = Solubility of naringenin in various solvents; type: physicochemical
# Method: The invention recognizes that the solvent used for preparing naringenin compositions should be any solvent acceptable to be used in cosmetic formulations. In certain embodiments of the invention, naringenin is dissolved in a solvent selected from a group consisting of: dimethyl isosorbide, ethoxydiglycol, isopropyl lauryl sarcosinate, pentylene glycol, propanediol, 1,2-hexanediol, and/or butylene glycol. In certain preferred embodiments, naringenin is dissolved in dimethyl isosorbide. In certain embodiments, naringenin is dissolved in isopropyl lauryl sarcosinate. In certain embodiments, naringenin is dissolved in ethoxydiglycol. In certain embodiments, the solvent is a glycol. In certain embodiments, the glycol is selected from a group consisting of pentylene glycol, butylene glycol, and any combination thereof. In certain embodiments, the solvent is selected from a group consisting of: phenylpropanol, 1,2-hexanediol, propanediol, isopentyldiol, 1,2 heptanediol, and any combination thereof.
# Table 1 provides the solubility data for naringenin in several solvents. […]
# [2] = tested on: MUCL1; assay: Upregulation of gene expression and/or activity, 1% naringenin: MUCL1
# Excerpt: (§1) In certain embodiments, administration of a composition comprising naringenin leads to up-regulation of LCE5A, KRT77, ALOXE3, KRT1, HPGD, MUCL1, CASP14, WFDC12, KRT10, DNASE1L2, IL37, SERPINB12, HAL, UPK1A, CALML5, LCE2B, and/or MIR205. In certain embodiments, administration of a composition comprising naringenin leads to down-regulation of CCL11, CSF2, IL23A, IL11, BMP6, IL13RA2, C2CD4A, NR4A2, C2CD4B, FGF2, FARP4, GDF15, THBS1, HSPA1A, PTGS2, and/or DKK1. Tables 10 and 11 provide data for upregulation and downregulation respectively of certain genes after administration of compositions comprising 1% naringenin.
# [3] = tested on: WFDC12; assay: Upregulation of gene expression and/or activity, 1% naringenin: WFDC12
# Excerpt: as §1
# [4] = tested on: UPK1A; assay: Upregulation of gene expression and/or activity, 1% naringenin: UPK1A
# Excerpt: as §1
# Uroplakin 1A (UPK1A) is involved in cell proliferation. The proteins in this family mediate signal transduction events that play a role in the regulation of cell development, activation, growth and motility. This encoded protein is found in the asymmetrical unit membrane (AUM) where it can complex with other transmembrane 4 superfamily proteins. UP1A may play a role in normal bladder epithelial physiology, possibly in regulating membrane permeability of superficial umbrella cells or in stabilizing the apical membrane through AUM/cytoskeletal interactions. In certain embodiments, compositions comprising naringenin leads to upregulation of UPK1A, which leads to increase cell proliferation, including the cells in the skin and the underlying tissues. […]
# [5] = tested on: BMP6; assay: Downregulation of gene expression and/or activity, 1% naringenin: BMP6
# Excerpt: as §1
# Bone morphogenetic protein 6 (BMP6) plays a role in wound healing. The protein encoded by this gene is a member of the TGFβ superfamily. Bone morphogenetic proteins are known for their ability to induce the growth of bone and cartilage. BMP6 may induce all osteogenic markers in mesenchymal stem cells. In certain embodiments, the administration of compositions comprising naringenin leads to downregulation of expression and/or activity of BMP6. […] In certain embodiments, this may also lead to anti-aging effect for the skin. In certain embodiments, the administration of composition comprising naringenin results in at least about 2 to about 20-fold downregulation of expression and/or activity of BMP6. […]
# [6] = tested on: NR4A2; assay: Downregulation of gene expression and/or activity, 1% naringenin: NR4A2
# Excerpt: as §1
# Nuclear receptor subfamily 4 group A member 2 (NR4A2) plays a role in the inflammatory response. In certain embodiments, downregulation of NR4A2 results in reduction in inflammation. In certain embodiments, the administration of composition comprising naringenin results in at least about 5 to about 15-fold downregulation of expression and/or activity of NR4A2. In certain embodiments, the administration of composition comprising naringenin results in at least about ten (10) fold downregulation of expression and/or activity of NR4A2.
# [7] = target: T1, human neutrophil elastase (Homo sapiens, UniProt P08246); assay: Elastase enzyme inhibition; type: biochemical
# T1 sequence (P08246 30-267): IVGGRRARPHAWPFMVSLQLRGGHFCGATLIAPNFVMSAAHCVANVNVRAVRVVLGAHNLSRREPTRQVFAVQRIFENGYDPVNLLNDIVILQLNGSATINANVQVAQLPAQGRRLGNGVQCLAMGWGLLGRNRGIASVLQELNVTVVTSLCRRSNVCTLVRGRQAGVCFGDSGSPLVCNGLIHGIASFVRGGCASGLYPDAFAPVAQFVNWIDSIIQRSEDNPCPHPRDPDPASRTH
# Method: The assay was conducted to evaluate the elastase enzyme inhibition activity of compositions comprising naringenin.
# Neutrophil infiltration and neutrophil elastase are both increased in the skin in response to UV stress. […] Therefore, inhibition of this enzyme, particularly in combination with antioxidant activity, is effective in delaying wrinkle development and aiding in maintaining skin integrity. This assay is measures release of 4-nitroaniline from an Me-Suc-Ala-Ala-Pro-Val-pNA by human neutrophil elastase and can be quantified at 405 nm by comparing to solvent control.
smiles,measurement,setting,value
"O=C1C[C@@H](c2ccc(O)cc2)Oc2cc(O)cc(O)c21 [naringenin, (2S)-5,7-Dihydroxy-2-(4-hydroxyphenyl)-2,3-dihydro-4H-1-benzopyran-4-one]",Solubility (in words),[1]; in Helianthus Annuus (Sunflower) Seed Oil / sunflower oil,insoluble in Helianthus Annuus (Sunflower) Seed Oil; also recorded: not soluble in sunflower oil
same,Solubility (in words),[1]; in water,poorly soluble or insoluble in water
same,Naringenin Solubility,"[1]; solvent: 1,2 heptanediol",2.50 % w/w
same,Naringenin Solubility,"[1]; solvent: 1,2 hexanediol",2.50 % w/w
same,Naringenin Solubility,"[1]; solvent: 1,2 propanediol",0.00 % w/w
same,Naringenin Solubility,"[1]; solvent: 3-methyl-1,3-butanediol",0.00 % w/w
same,Naringenin Solubility,[1]; solvent: Butylene glycol,2.50 % w/w
same,Naringenin Solubility,[1]; solvent: C9-12 alkane,0.00 % w/w
same,Naringenin Solubility,[1]; solvent: C15-19 alkane,0.00 % w/w
same,Naringenin Solubility,[1]; solvent: Capric/caprylic triglyceride,0.00 % w/w
same,Naringenin Solubility,[1]; solvent: Di(propylene glycol) dibenzoate,0.00 % w/w
same,Naringenin Solubility,[1]; solvent: Dimethyl isosorbide,15.00 % w/w
same,Naringenin Solubility,[1]; solvent: Ethoxydiglycol,20.00 % w/w
same,Naringenin Solubility,[1]; solvent: Isoamyl laurate,0.00 % w/w
same,Naringenin Solubility,[1]; solvent: Isopentyldiol,2.50 % w/w
same,Naringenin Solubility,[1]; solvent: Isopropyl lauryol sarcosinate,10.00 % w/w
same,Naringenin Solubility,[1]; solvent: Isopropyl myristate,0.00 % w/w
same,Naringenin Solubility,[1]; solvent: Neopentyl glycol diethylhexanoate,0.00 % w/w
same,Naringenin Solubility,[1]; solvent: Oleyl alcohol,0.00 % w/w
same,Naringenin Solubility,[1]; solvent: Pentylene glycol,2.50 % w/w
same,Naringenin Solubility,[1]; solvent: Phenylpropanol,5.00 % w/w
same,Naringenin Solubility,[1]; solvent: Propanediol,2.50 % w/w
same,Naringenin Solubility,[1]; solvent: Squalene,0.00 % w/w
same,Naringenin Solubility,[1]; solvent: Tri C12-C13 alkyl citrate,0.00 % w/w
same,Naringenin Solubility,[1]; solvent: Tributyl citrate,0.00 % w/w
same,Naringenin Solubility,[1]; solvent: Tributyl-O-acetylcitrate,0.00 % w/w
same,Naringenin Solubility,[1]; solvent: Triethyl O-acetylcitrate,0.00 % w/w
same,Naringenin Solubility,[1]; solvent: Triethyl citrate,0.00 % w/w
same,Naringenin Solubility,[1]; solvent: Triisostearin,0.00 % w/w
same,Naringenin Solubility,[1]; solvent: jojoba oil,0.00 % w/w
same,Naringenin Solubility,[1]; solvent: sunflower oil,0.00 % w/w
same,Fold-increase in expression and/or activity of MUCL1,[2],11 fold
same,Fold-increase in expression and/or activity of WFDC12,[3],11 fold
same,Fold-increase in expression and/or activity of UPK1A,[4],~10 fold
same,fold downregulation in expression and/or activity of BMP6,[5],~11 fold
same,Fold-increase (downregulation table) BMP6,[5]; negative = downregulation,−11 fold
same,fold downregulation in expression and/or activity of NR4A2,[6],~9 fold
same,Fold-increase (downregulation table) NR4A2,[6]; negative = downregulation,−9 fold
same,Lowest concentration inhibiting elastase,[7],≤ 0.02 % w/w
same,inhibition at 0.02 % strength,[7]; 0.02 % w/w naringenin,1.05%
same,inhibition at 0.1 % strength,[7]; 0.10 % w/w naringenin,15.5%
same,inhibition at 0.5 % strength,[7]; 0.50 % w/w naringenin,84%
same,IC50 elastase inhibition,"[7]; role: inhibitor, substrate Me-Suc-Ala-Ala-Pro-Val-pNA, calculated",0.159 % w/w
